The numbers were not newly measured in US11065250B2, “Solid dosage forms of palbociclib” (PFIZER INC., priority 2015, dated 2021), which cites them from elsewhere.

Read-outs that look alike come from different tables or passages of the source.

The conditions of data set [1]: low pH (2.1-4.5).

In the case of `CC(=O)c1c(C)c2cnc(Nc3ccc(N4CCNCC4)cn3)nc2n(C2CCCC2)c1=O` [Palbociclib, 6-acetyl-8-cyclopentyl-5-methyl-2-(5-piperazin-1-yl-pyridin-2-ylamino)-8H-pyrido[2,3-d]pyrimidin-7-one], the “pKa (pyridine nitrogen)” value is reported as roughly 4.1 and the “pKa (secondary piperazine nitrogen)” value was “approximately 7.3”. Besides, where the note is “listed as palbociclib”, the “pKa (pyridine nitrogen)” value is on record as “approximately 4.1” and the “pKa (secondary piperazine nitrogen)” value is recorded as roughly 7.3. Besides, the solubility in words result in data set [1] is on record as “water soluble”.
